Source: US12612431B2, “Cyclic compounds for treating cancer” (University of South Florida, priority 2021, dated 2026)

Tests used:
[1] = cited from earlier work
[2] = target: T1, EGFR phosphorylation (P-EGFR) (Homo sapiens, UniProt P00533); test: Western blot of EGF-stimulated EGFR phosphorylation in A549 cells; format: cell-based
T1 construct: endogenous in cells; host or cells: A549
Description: (§1) A549 cells were chosen due to their elevated expression of EGFR. […] The ability of M-2-5 to inhibit EGF-stimulated tyrosine phosphorylation of EGFR, as well as downstream AKT and ERK pathways in a dose-dependent manner was then investigated.
(§2) A549 cells were seeded into a 6-well plate at a concentration of 1×10^5 cells/well. After 12 h attachment at 37° C. and 5% CO2, the cells were starved overnight in serum-reduced DMEM followed by treatment with different concentration of M-2-5 for 4 h. […] Subsequently, the cells were incubated on ice for 10 min and centrifuged at 14,000×g at 4° C. for 10 min. An equal amount of protein was run on 4˜12% Bis-Tris gels, transferred to polyvinylidene difluoride membranes (Millipore) and western blotted with anti-phosphorylated EGFR, anti-phosphorylated AKT, anti-phosphorylated ERK and GAPDH. The experiments were conducted in triplicates and repeated for three times.

PAMPA-GIT assay = conditions: pH 5.0, 6.2 and 7.4 (FIG. 8B)
Description: (§7) Carbamazepine and Antipyrine were used as the positive and negative control compounds for the assay.
The PAMPA-GIT assay procedure was realized by using a method developed by pION. All liquid handling steps for the PAMPA assay are performed on a TECAN Fredom EVO150 robot and analyzed by the pION's PAMPA Evolution Software. The pION's GIT PAMPA includes the acceptor sink buffer (ASB), the GIT-0 Lipid Solution and the Stirwell™ PAMPA Sandwich plate, preloaded with magnetic disks. 4 μL of lipid were transferred in the acceptor well, followed by addition of 200 μL of ASB (pH 7.4). […] The PAMPA sandwich plate was assembled and placed on the Gut-Box™ and stirred with 40 μm ABL settings for 30 min. The distribution of the compounds in the donor and acceptor buffers (150 μL aliquot) was determined by UV spectra measurement from 200 to 498 nm using the Tecan infinite M-1000 pro microplate reader. Then the Permeability (Papp, 10 ^6 cm/s) of each compound was calculated by the pion PAMPA evolution software. The assays were repeated three times.

A549 cells [3] = test: Scratch-wound (cell wound healing) assay; format: cell-based; conditions: A549, 25 μM, 30 h
Description: (§3) M-2-5's inhibitory effect on cell migration of A549 cells, which plays an important role in tumor metastatic activity, was then investigated. First, a scratch-wound assay was established to investigate the cell migratory behaviors.
A549 cells in good condition were seeded into a 12-well plate at a concentration of 5×10^4 cells/well. After 24 h attachment at 37° C. and 5% CO2, they reached confluence as a monolayer. The monolayer was scratched gently and slowly with a new 200 μL pipette tip across the center of the well straightly. After scratching, the well was washed twice with medium to remove the detached cells. The well was then replenished with fresh medium containing different concentration of M-2-5. The photo was taken for the scratched monolayer and then captured again after 30 h for the same wound. The wound width was measured by ImageJ. The experiments were conducted in triplicates and repeated for three times.

P-AKT = test: Western blot of P-AKT in A549 tumor lysates; format: in vivo, mice; conditions: M-2-5 50 mg/kg
Description: (§4) After another 6 days post injection, mice were sacrificed, and tumors were resected. […] To confirm the expression level of P-EGFR and downstream signaling, the total proteins were extracted from tumor tissues in each group and subjected to immunoblotting of P-EGFR, P-ARK and P-ERK. […] In addition, the phosphorylation level of EGFR in the A549 tumor sections was analyzed by immunohistochemical staining.
(§5) The supernatant was transferred to a new tube and samples were centrifuged at 14,000 rpm for 15 min at 4° C. to remove any remaining insoluble material. The supernatant containing soluble proteins was transferred to a new tube and an aliquot was taken for the quantification and the further western blot analysis.

[4] = system: AKT phosphorylation (P-AKT); test: Western blot of downstream AKT phosphorylation in A549 cells; format: cell-based; conditions: starved A549 cells, 4 h pretreatment, EGF 100 ng/mL
Description: as §1, §2

[5] = system: A549 lung tumor xenograft; test: Antitumor study in A549 lung tumor xenograft mouse model; format: in vivo, mice; conditions: every two days for seven times
pronase = test: Enzymatic stability assay toward pronase; format: in vitro ADME; conditions: 0.1 mg/mL pronase, 100 mM ammonium bicarbonate buffer, 37° C., 20 h
Description: As M-2-5 is a promising ligand to block EGFR signaling in vitro, its enzymatic stability toward pronase (the enzyme theoretically digesting peptides into single amino acids), which is critical for their potential biological activity in vivo was evaluated.
Cyclic γ-AApeptides M-2-5 (0.1 mg/mL) were incubated with 0.1 mg/mL protease in 100 mM ammonium bicarbonate buffer (pH 7.8) at 37° C. for 20 h. Then, the reaction mixtures were concentrated in a speed vacuum to remove water and ammonium bicarbonate. The resulting residues were re-dissolved in H2O/MeCN and analyzed on a Waters analytical HPLC system.

P-EGFR = target: T2, P-EGFR (Homo sapiens, UniProt P00533); test: Western blot of P-EGFR in A549 tumor lysates; format: in vivo, mice; conditions: M-2-5 50 mg/kg
T2 construct: from tissue; host or cells: A549 xenograft tumours from nude mice
T2 sequence (P00533 25-1210): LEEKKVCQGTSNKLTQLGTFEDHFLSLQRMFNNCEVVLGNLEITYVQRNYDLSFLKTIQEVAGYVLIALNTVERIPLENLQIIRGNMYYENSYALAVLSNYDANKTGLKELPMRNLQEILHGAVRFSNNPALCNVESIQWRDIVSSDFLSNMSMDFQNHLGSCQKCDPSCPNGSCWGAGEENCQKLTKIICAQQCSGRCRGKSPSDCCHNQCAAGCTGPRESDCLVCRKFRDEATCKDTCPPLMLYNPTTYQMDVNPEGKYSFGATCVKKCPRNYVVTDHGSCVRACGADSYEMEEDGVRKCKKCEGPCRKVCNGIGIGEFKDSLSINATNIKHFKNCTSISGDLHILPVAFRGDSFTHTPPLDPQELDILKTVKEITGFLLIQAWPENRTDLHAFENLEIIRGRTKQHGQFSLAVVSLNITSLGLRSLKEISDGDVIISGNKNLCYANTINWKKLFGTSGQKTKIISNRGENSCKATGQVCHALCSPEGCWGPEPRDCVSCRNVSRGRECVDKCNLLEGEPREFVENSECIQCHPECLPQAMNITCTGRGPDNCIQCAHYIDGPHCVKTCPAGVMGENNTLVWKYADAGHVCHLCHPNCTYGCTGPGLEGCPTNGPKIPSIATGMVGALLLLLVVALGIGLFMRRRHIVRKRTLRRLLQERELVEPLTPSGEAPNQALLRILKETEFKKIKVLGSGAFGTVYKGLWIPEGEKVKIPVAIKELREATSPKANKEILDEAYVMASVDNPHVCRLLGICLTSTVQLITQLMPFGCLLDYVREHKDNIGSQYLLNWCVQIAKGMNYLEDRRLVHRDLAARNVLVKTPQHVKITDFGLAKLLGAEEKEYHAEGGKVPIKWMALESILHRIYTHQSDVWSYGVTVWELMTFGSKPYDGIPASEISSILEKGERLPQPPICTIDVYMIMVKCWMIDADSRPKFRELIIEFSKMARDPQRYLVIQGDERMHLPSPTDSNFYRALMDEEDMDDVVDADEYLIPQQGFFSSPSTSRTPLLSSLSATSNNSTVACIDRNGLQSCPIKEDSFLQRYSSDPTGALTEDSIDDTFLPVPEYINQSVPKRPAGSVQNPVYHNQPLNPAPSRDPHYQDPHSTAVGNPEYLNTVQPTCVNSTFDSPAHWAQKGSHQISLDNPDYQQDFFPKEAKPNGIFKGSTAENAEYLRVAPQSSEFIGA
Description: as §4, §5

P-ERK = test: Western blot of P-ERK in A549 tumor lysates; format: in vivo, mice; conditions: M-2-5 50 mg/kg, compared to C225
Description: (§6) Based upon the observed strong inhibition of cell proliferation and migration, the ability to inhibit EGFR cell signaling pathways in vitro, as well as the remarkable stability against proteolytic degradation, the antitumor activity of M-2-5 in a A549 lung tumor xenograft mouse model was evaluated in vivo. […] After another 6 days post injection, mice were sacrificed, and tumors were resected. […] To confirm the expression level of P-EGFR and downstream signaling, the total proteins were extracted from tumor tissues in each group and subjected to immunoblotting of P-EGFR, P-ARK and P-ERK. […] In addition, the phosphorylation level of EGFR in the A549 tumor sections was analyzed by immunohistochemical staining. […] Together with its similar function to monoclonal antibody and its high resistance toward proteolytic degradation, it could be further investigated for promising clinical anti-cancer drug development.
For the detection of phosphorylated EGFR, AKT and ERK in tumors in vivo, a portion of the tumor (80 mg) was immersed in 500 μL extraction buffer (50 mM Tris-HCl (pH 7.4), 150 mM NaCl, 1% NP-40, 0.25% Na-deoxycholate, Protease Inhibitor, SDS 0.1-2%), and tubes were vortexed briefly. […] The supernatant containing soluble proteins was transferred to a new tube and an aliquot was taken for the quantification and the further western blot analysis.

A549 cells [6] = test: Transwell migration assay; format: cell-based; conditions: A549, EGF + M-2-5 25 μM, 12 h
Description: as §3
A549 cells in good condition were seeded into a 100 mm dish at a concentration of 5×10^5 cells. After overnight attachment at 37° C. and 5% CO2, culture medium was replaced with serum reduced DMEM medium, and the dish was returned to incubator for 24 h. Cells were the detached and resuspended in DMEM at a concentration of 1×10^6 cells/mL. Next, 100 μL of cell solution was plated on top of the filter membrane in a transwell insert and incubated for 10 minutes at 37° C. and 5% CO2 to allow the cells to settle down. Subsequently, 600 μL of the desired chemo-attractant was added very carefully into the bottom of the lower chamber in a 24-well plate. The culture was incubated for 12 h, and then the transwell insert was removed from the plate. A cotton-tipped applicator was used as many times as needed to carefully swab the inside of each insert. Cells were fixed by 70% ethanol, stained by 0.2% crystal violet and visualized by microscope. Transwell data was determined by the number of the migrated cells and the value from parental cells was arbitrarily set at 100%. The experiments were conducted in triplicates and repeated for three times.

[7] = system: ERK phosphorylation (P-ERK); test: Western blot of downstream ERK phosphorylation in A549 cells; format: cell-based; conditions: starved A549 cells, 4 h pretreatment, EGF 100 ng/mL
Description: as §1, §2

PAMPA-BBB assay = conditions: pH 7.4
Description: as §7
The parallel artificial membrane permeability assay—blood brain barrier (PAMPA-BBB) assay procedure was realized by using a method developed by pION. All liquid handling steps for the PAMPA assay are performed on a TECAN Fredom EVO150 robot and analyzed by the pION's PAMPA Evolution Software. The pION's PAMPA-BBB includes the brain sink buffer (BSB), the BBB-1 Lipid Solution and the Stirwell™ PAMPA Sandwich plate, preloaded with magnetic disks. 4 μL of lipid were transferred in the acceptor well, followed by addition of 200 μL of BSB (pH 7.4). […] The PAMPA sandwich plate was assembled and placed on the Gut-Box™ and stirred with 60 μm Aqueous Boundary Layer (ABL) settings for 1 hour. The distribution of the compounds in the donor and acceptor buffers (150 μL aliquot) was determined by UV spectra measurement from 200 to 500 nm using the Tecan infinite M-1000 pro microplate reader. […] Experiments were repeated three times.

A549 cells [8] = test: EGF-driven cell proliferation assay (CCK-8); format: cell-based; conditions: A549, EGF 100 ng/mL, 48 h
Description: A549 cells were cultured in high-glucose DMEM (Gibco) medium containing 10% fetal bovine serum and 1% penicillin/streptomycin in an atmosphere of 5% CO2 at 37° C. A549 cells in good condition were seeded into a 96-well plate at a concentration of 1×10^3 cells/well in 100 of complete growth medium. After 24 hours of attachment at 37° C. and 5% CO2, medium was replaced by fresh serum reduced DMEM and cell were serum-starved overnight. […] After 48 h, the CCK-8 reagents were added according to the manufacturer's recommendations.

[9] = Body weight of A549 tumor xenografted mice; format: in vivo; conditions: 10 and 50 mg/kg intraperitoneal, FIG. 10
Description: as §6
A549 cells were harvested, resuspended in PBS, and injected subcutaneously into 4-6 weeks old Male BALB/c nude mice. When the tumors reach an average size of 100 mm^3, the mice were then randomized divided into four treatment groups: Control (PBS), C-225 (40 mg/kg), M-2-5 (10 mg/kg) and M-2-5 (50 mg/kg). […] The tumor volumes were determined by measuring length (l) and width (w) and calculating volume (V=lw^2/2).

[10] = system: Human Embryonic Kidney HEK293 cells
[11] = general statement on the positive control; cited from earlier work

T1 sequence (P00533 25-1210): as above

Cc1cc(=O)n(-c2ccccc2)n1C [Antipyrine]
Papp values (background) [1]: low Papp values

COc1cc(CC(=O)N2CC(=O)N[C@@H](Cc3ccccc3)CN(CC(N)=O)C(=O)CCSCc3ccc(cc3)C(=O)N[C@@H](CCCCN)CN(C(=O)CCC3CCCCC3)CC(=O)N[C@@H](Cc3ccccc3)CN(C(=O)CCc3ccccc3)CC(=O)N[C@@H](Cc3ccccc3)C2)cc(OC)c1 [M-2-5]
IC50 [2]: 17.7 µM
effect on EGF-induced EGFR activation ([2]; starved A549 cells, 20 μM M-2-5 for 4 h, EGF 100 ng/mL (FIG. 5C, 5D)): blocked a vast majority of EGFR activation
inhibition of EGF stimulation of EGFR phosphorylation at 25 μM or more ([2]; starved A549 cells, 4 h pretreatment, 25 μM or more): almost complete blockage
Papp, PAMPA-GIT (in words) (PAMPA-GIT assay): favorable Papp without pH-dependence
percent of wound closed (A549 cells [3]): 15.2%
decrease of wound closed compared with untreated control (A549 cells [3]; control 55.3%): 40%
P-AKT level in tumor tissue (P-AKT): dramatic decrease
IC50 [4]: 8.75 µM
tumor volume versus PBS group ([5]; 10 mg/kg intraperitoneal): no significant differences
tumor growth versus PBS group ([5]; 50 mg/kg intraperitoneal): significant suppression of tumor growth
degradation by pronase monitored by HPLC (pronase): no detectable degradation
P-EGFR level in tumor tissue (P-EGFR): dramatic decrease
inhibition of P-ERK in tumor tissue (P-ERK): slightly weaker efficiency
number of migrating cells relative to untreated control (100%) (A549 cells [6]): 64.8%
IC50 [7]: 11.2 µM
Papp at 1 h, 50 μM (PAMPA-BBB assay): 266
IC50 (A549 cells [8]; CCK-8, read-out: IC50 of antiproliferative activity on EGF-stimulated cells): 8.23 µM
suppression of EGF-driven cell proliferation at ˜10 (A549 cells [8]; at ˜10 (unit not given), versus control without EGF): complete suppression of cell proliferation
body weight gain [9]: did not affect the body weight gain
selectivity toward cancer cells over normal cells ([10]; A549 versus HEK293): ~8 fold
IC50 ([10]; read-out: IC50 for HEK293 cells, no EGF stimulation, CCK-8): 62.1 µM

NC(=O)N1c2ccccc2C=Cc2ccccc21 [Carbamazepine]
absorption in the human gastrointestinal tract [11]: > 90%
